The molecules below were run on RAW264.7 (assay: Antiinflammatory activity against IFN-gamma, TNF-alpha and IL-1-stimulated mouse RAW264.7 cells assessed as inhibition of cellular iNOS synthesis).
Format: functional, cell-based

| IC50 [µM] | SMILES |
| --- | --- |
| 6 | C[C@H]1[C@H](C)CC[C@]2(C(=O)O)CC[C@]3(C)C(=CC[C@@H]4[C@@]5(C)C=CC(=O)C(C)(C)[C@@H]5CC[C@]43C)[C@H]12 |
| 17.6 | C[C@H]1[C@H](C)CC[C@]2(C(=O)O)CC[C@]3(C)C(=CC(=O)[C@@H]4[C@@]5(C)C=CC(=O)C(C)(C)[C@@H]5CC[C@]43C)[C@H]12 |
| 0.2 | CC1(C)CC[C@]2(C(=O)O)CC[C@]3(C)[C@H](C(=O)C=C4[C@@]5(C)C=CC(=O)C(C)(C)[C@@H]5CC[C@]43C)[C@@H]2C1 |

Reference: ChEMBL document CHEMBL1765043, “New synthetic triterpenoids: potent agents for prevention and treatment of tissue injury caused by inflammatory and oxidative stress” (J Nat Prod, 2011)
